Experimental data as given in US10357500B2, “Neuro-protective agents and uses thereof” (Guangzhou Cellprotek Pharmaceutical Co., Ltd., priority 2014, dated 2019).
Entries after “also recorded” stand apart in the source; their conditions may differ.

Tests used:
Assay type in all cases: in vivo
[1] = tested on: Macaca fascicularis in acute hypobaric hypoxia; assay: Neurological score, acute hypobaric hypoxia model (simulated 7,500 m); settings: for neurological function / neurological score (in words): acute hypobaric hypoxia, simulated 7,500 meters, vs solvent control
Text: (§1) 17 healthy male Macaca fascicularis, 6 to 6.5 years-old, weighted 6.8-7.5 kg, were used. The use of laboratory animals is approved by Committee of laboratory animal management and use and experimental animal ethics committee. The experiment scheme complies with rules concerning animal protection, animal welfare and ethical principles. The 17 Macaca fascicularis were grouped randomly into 3 groups (Table 1).
(§2) The low pressure chamber group is a platform used to simulate low temperature and low pressure plateau environment. The system can be manipulated to simulate a low pressure environment having any altitude below 10000 meters and any temperature above −30° C. The ascending velocity: 3 m/second (0 to 6000 m); descending velocity: 2 m/second (6000 m to 7500 m); constant temperature: 22° C.; average air flow velocity: 150 m^3/h.
(§3) (1) An altitude of 7,500 meters was simulated by manipulation of the low-pressure chamber to cause acute hypoxia in Macaca fascicularis.
(§4) The Macaca fascicularis raised in the laboratory animal housing were labeled and transferred to the low-pressure chamber. The Macaca fascicularis was fed for 1 more day in the chamber in order to make them adapt to the experimental environment. The pressure in the low-pressure chamber was adjusted to simulate altitudes of 3,000, 4,500, and 6,000 meters, staying at each altitude for 30 minutes, followed by simulation of an altitude of […] for 24 hours. The animals were then treated with drugs individually at pre-determined doses. After treatment at 7,500 meters for 48 hours, the altitude was decreased to 6,000 meters at a velocity of 3 m/s. The animals were subject to ketamine anesthesia, sacrificed, dissected and subject to sampling. The samples were fixed. Animals grouped in plain controls were raised in an animal housing at an altitude of 350 m before assessment and sacrifice.
(§5) (2) The animals in 5α-androstane-3β,5,6β-triol treatment group were administered through intravenous injection 10 mL of 5α-androstane-3β,5,6β-triol solution in glucose saline at a dosage of 10 mg/kg before simulation, after 30 min at 3,000 meters, and after 30 min at 4,500 meters, respectively. The animals in solvent control group were given 10 mL of glucose saline through intravenous injection.
(3) The animals in 5α-androstane-3β,5,6β-triol treatment group were administered by skeletal muscle injection at 5 different points with 5α-androstane-3β,5,6β-triol sustained-release formulation at a dosage of 30 mg/kg after 30 min at 6,000 meters. Acute plateau hypoxia models were administered 10 mL of glucose saline through intravenous injection. […]
Animals were stayed at simulated altitude of 7,500 meters for 24 hours before descending to 6,000 meters at a speed of 3 m/s. The neurological scores were evaluated and recorded according to a reported method (Zhu et al, An improved method of neurological score for non-human primates, Chinese Journal of Comparative Medicine, 2011, 21 (9): 58-62). The neurological score was evaluated and recorded by two trained observers who were neither aware of the grouping nor involved in the drug administering. […]
The results were indicated as mean±standard deviation, and statistically analyzed by software SigmaPlot. […]

[2] = tested on: Macaca fascicularis in acute hypobaric hypoxia; assay: Cerebral water content of left hemisphere, acute hypobaric hypoxia model; settings: for Cerebral Water Content (%): left hemisphere, 48 hours at simulated 7,500 meters, 10 mg/kg i.v. and 30 mg/kg i.m., repeated after 24 hours; for increase of cerebral water content (in words): acute hypobaric hypoxia, simulated 7,500 meters, vs solvent control
Text: as §1, §2, §3, §4, §5
(§6) (3) The animals in 5α-androstane-3β,5,6β-triol treatment group were administered by skeletal muscle injection at 5 different points with 5α-androstane-3β,5,6β-triol sustained-release formulation at a dosage of 30 mg/kg after 30 min at 6,000 meters. Acute plateau hypoxia models were administered 10 mL of glucose saline through intravenous injection.
(4) The animals in 5α-androstane-3β,5,6β-triol treatment group were administered through intravenous injection 10 mL of 5α-androstane-3β,5,6β-triol injection in glucose saline at a dosage of 10 mg/kg after 24 hours at 7,500 meters, and further by skeletal muscle injection at 5 different points with 5α-androstane-3β,5,6β-triol sustained-release formulation at a dosage of 30 mg/kg. […]
Cerebral water content was measured according to a reported method (Patir H, Sarada S K, Singh S, Mathew T, Singh B, Bansal A. Quercetin as a prophylactic measure against high altitude cerebral edema. Free Radic Biol Med 2012 Aug. 15; 53(4):659-68). […] Brains of the animals were rapidly taken out and the wet weights of the left hemispheres were measured. The left hemispheres were then placed in a drying oven at 60° C., and were measured their weights daily at a fixed time until no weight change was observed. […]

[3] = tested on: Macaca fascicularis in acute hypobaric hypoxia; assay: Transmission electron microscopy of the cortical tissue of the frontal lobe (vasogenic edema); settings: frontal lobe cortex, transmission electron microscope, vs solvent control
Text: as §1, §2, §3, §4, §5, §6
(4) The animals in 5α-androstane-3β,5,6β-triol treatment group were administered through intravenous injection 10 mL of 5α-androstane-3β,5,6β-triol injection in glucose saline at a dosage of 10 mg/kg after 24 hours at 7,500 meters, and further by skeletal muscle injection at 5 different points with 5α-androstane-3β,5,6β-triol sustained-release formulation at a dosage of 30 mg/kg. Acute plateau hypoxia models were administered 10 mL of glucose saline through intravenous injection.
The cortical tissues of the frontal lobes of the animals were taken out and cut to provide brain pieces of 1 mm^3, which were fixed in a stationary liquid of 2.5% glutaraldehyde to prepare ultrathin sections. The morphology of neurons and the structure of blood vessels were observed by transmission electron microscopy.

[4] = tested on: Macaca fascicularis in acute hypobaric hypoxia; assay: HE staining of the cortical tissue of the frontal lobe (neuronal vacuolar degeneration); settings: frontal lobe cortex, vs solvent control
Text: as §1, §2, §3
The Macaca fascicularis raised in the laboratory animal housing were labeled and transferred to the low-pressure chamber. The Macaca fascicularis was fed for 1 more day in the chamber in order to make them adapt to the experimental environment. […] The animals were then treated with drugs individually at pre-determined doses. […]

Row | Structure (SMILES) | neurological score ([1]; 24 hours at simulated 7,500 meters, 10 mg/kg i.v. x3 and 30 mg/kg i.m. sustained-release, solvent control 31.6±4.2, mean±SD) | neurological function / neurological score (in words) [1] | Cerebral Water Content (%) ([2]; plain control 76.155, solvent control 76.714) | Cerebral Water Content (%) ([2]; plain control 76.155, solvent control 76.714, listed as 5α-androstane-3β3,5,6β-triol) | vasogenic edema / Virchow-Robin space of cortical capillary vessels (in words) [3] | neuronal vacuolar degeneration (in words) [4] | increase of cerebral water content (in words) [2]
1 | C[C@@]12CCC[C@H]1[C@@H]1C[C@@H](O)[C@@]3(O)C[C@@H](O)CC[C@]3(C)[C@H]1CC2 [5α-androstane-3β,5,6β-triol] | 20.5±5.7 | significantly improved | 76.283 ± 0.235 % | 76.283% | reduced; also recorded: no significant vasogenic edema occurred | reduced neuronal vacuolar degeneration | 
2 | CC(C)CCC[C@@H](C)[C@H]1CC[C@H]2[C@@H]3C[C@@H](O)[C@@]4(O)C[C@@H](O)CC[C@]4(C)[C@H]3CC[C@]12C [Compound I, cholestane-3β,5α,6β-triol] |  |  |  |  | effectively reduce | effectively reduce | 
3 | CCC=C1CC[C@H]2[C@@H]3C[C@@H](O)[C@@]4(O)C[C@@H](O)CC[C@]4(C)[C@H]3CC[C@]12C [Compound II, 17-propylidene-androstane-3β,5α,6β-triol] |  | effectively protected |  |  | no significant angioedema |  | inhibited increase of the cerebral water content
4 | CC(C)C1CC[C@H]2[C@@H]3C[C@@H](O)[C@@]4(O)C[C@@H](O)CC[C@]4(C)[C@H]3CC[C@]12C (stereo partly drawn) [Compound III, 17-isopropyl-androstane-3β,5α,6β-triol] |  | effectively protected |  |  | no significant angioedema |  | inhibited increase of the cerebral water content
5 | CCCCC1CC[C@H]2[C@@H]3C[C@@H](O)[C@@]4(O)C[C@@H](O)CC[C@]4(C)[C@H]3CC[C@]12C (stereo partly drawn) [Compound IV, 17-butyl-androstane-3β,5α,6β-triol] |  | effectively protected |  |  | no significant angioedema |  | inhibited increase of the cerebral water content
